Measured values from ChEMBL document CHEMBL4321813, “Discovery of GSK3527497: A Candidate for the Inhibition of Transient Receptor Potential Vanilloid-4 (TRPV4)” (J Med Chem, 2019).
In brackets after ≈: the same amount, converted by molar mass.

Columns and labels:
[1] = Volume of distribution at steady state in dog; type: ADME, Canis lupus familiaris; conditions: in vivo, read-out: Vdss
[2] = Dose normalized AUC in Sprague-Dawley rat at 2 mg/kg, po by HPLC-MS/MS analysis; type: ADME, organism-based; conditions: in vivo
[3] = molecular target: Cytochrome P450 3A4 (Homo sapiens, UniProt P08684); assay: Inhibition of CYP3A4 (unknown origin); type: ADME
Cytochrome P450 3A4, sequence (P08684 whole entry): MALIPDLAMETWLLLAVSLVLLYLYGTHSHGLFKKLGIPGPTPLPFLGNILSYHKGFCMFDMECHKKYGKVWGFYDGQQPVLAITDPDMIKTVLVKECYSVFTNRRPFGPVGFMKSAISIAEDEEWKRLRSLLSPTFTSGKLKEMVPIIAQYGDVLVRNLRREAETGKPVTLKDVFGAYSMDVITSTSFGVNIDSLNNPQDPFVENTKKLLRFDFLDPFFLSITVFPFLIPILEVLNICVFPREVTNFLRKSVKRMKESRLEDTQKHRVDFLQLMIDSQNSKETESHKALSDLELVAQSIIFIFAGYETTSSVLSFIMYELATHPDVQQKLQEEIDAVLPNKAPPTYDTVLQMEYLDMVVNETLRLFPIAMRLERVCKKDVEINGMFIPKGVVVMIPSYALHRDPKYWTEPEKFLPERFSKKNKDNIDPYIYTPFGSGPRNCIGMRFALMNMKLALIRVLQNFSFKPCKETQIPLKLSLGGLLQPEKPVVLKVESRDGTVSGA

[4] = Apparent permeability in dog MDCK cells; type: ADME, cell-based, Canis lupus familiaris
[5] = Oral bioavailability in dog; type: ADME, organism-based, Canis lupus familiaris; conditions: in vivo
[6] = Oral bioavailability in Sprague-Dawley rat at 1 to 2 mg/kg by HPLC-MS/MS analysis; type: ADME, organism-based; conditions: in vivo
[7] = Unbound clearance in dog; type: ADME, Canis lupus familiaris; conditions: in vivo
[8] = Unbound volume of distribution at steady state in dog; type: ADME, Canis lupus familiaris; conditions: in vivo
[9] = Protein binding in dog plasma assessed as unbound fraction; type: ADME, cell-free, Canis lupus familiaris
[10] = MRT in Sprague-Dawley rat at 1 mg/kg, iv administered as 30 mins infusion by HPLC-MS/MS analysis; type: ADME, organism-based; conditions: in vivo
[11] = Solubility of the compound in FaSSIF measured after 4 hrs; type: physicochemical
[12] = Dose normalized AUC in Sprague-Dawley rat at 100 mg/kg, po by HPLC-MS/MS analysis; type: ADME, organism-based; conditions: in vivo
[13] = Lipophilicity, log D of the compound at pH 7.4 by chromatographic method; type: physicochemical; conditions: buffer
[14] = molecular target: Voltage-gated inwardly rectifying potassium channel KCNH2 (Homo sapiens, UniProt Q12809); assay: Inhibition of human ERG by electrophysiology
Voltage-gated inwardly rectifying potassium channel KCNH2, sequence (Q12809 whole entry): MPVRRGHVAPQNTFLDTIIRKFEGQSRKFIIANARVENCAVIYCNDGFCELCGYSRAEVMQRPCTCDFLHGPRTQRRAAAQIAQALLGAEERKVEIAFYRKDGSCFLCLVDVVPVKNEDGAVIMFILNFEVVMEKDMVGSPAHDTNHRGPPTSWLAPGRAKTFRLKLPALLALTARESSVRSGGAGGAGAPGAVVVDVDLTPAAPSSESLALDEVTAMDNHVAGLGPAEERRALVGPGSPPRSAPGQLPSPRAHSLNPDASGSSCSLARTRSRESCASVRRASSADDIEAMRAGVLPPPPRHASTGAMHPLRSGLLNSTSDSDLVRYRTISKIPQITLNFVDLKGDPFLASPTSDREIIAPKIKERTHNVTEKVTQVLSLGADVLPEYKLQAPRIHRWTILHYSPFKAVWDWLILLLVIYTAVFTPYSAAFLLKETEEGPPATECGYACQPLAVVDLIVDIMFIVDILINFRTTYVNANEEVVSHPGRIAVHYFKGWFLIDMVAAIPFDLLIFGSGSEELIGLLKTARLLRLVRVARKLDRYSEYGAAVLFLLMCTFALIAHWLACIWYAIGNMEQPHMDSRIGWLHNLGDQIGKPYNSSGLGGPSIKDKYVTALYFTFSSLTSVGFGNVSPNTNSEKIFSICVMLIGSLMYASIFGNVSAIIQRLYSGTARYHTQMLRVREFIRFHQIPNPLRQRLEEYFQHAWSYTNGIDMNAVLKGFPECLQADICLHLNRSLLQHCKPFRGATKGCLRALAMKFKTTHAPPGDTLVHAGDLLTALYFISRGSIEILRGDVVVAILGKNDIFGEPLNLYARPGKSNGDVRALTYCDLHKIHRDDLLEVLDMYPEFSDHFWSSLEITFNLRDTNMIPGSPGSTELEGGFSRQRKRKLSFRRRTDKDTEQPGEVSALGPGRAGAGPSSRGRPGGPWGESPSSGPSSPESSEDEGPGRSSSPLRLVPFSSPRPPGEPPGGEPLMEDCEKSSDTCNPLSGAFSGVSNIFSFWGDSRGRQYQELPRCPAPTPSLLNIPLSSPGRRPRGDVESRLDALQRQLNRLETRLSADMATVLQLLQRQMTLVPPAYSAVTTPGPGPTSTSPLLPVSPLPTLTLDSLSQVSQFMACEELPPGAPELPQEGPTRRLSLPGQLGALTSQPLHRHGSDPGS

[15] = Clearance in dog; type: ADME, Canis lupus familiaris; conditions: in vivo
[16] = Unbound volume of distribution at steady state in Sprague-Dawley rat at 1 mg/kg, iv administered as 30 mins infusion or 1 to 2 mg/kg, po by HPLC-MS/MS analysis; type: ADME, organism-based; conditions: in vivo, 0.5 h
[17] = Mean residence time in dog; type: ADME, Canis lupus familiaris; conditions: in vivo
[18] = Unbound clearance in Sprague-Dawley rat at 1 mg/kg, iv administered as 30 mins infusion by HPLC-MS/MS analysis; type: ADME, organism-based; conditions: in vivo, 0.5 h
[19] = molecular target: T1, Transient receptor potential cation channel subfamily V member 4 (Homo sapiens, UniProt Q9HBA0); assay: Antagonist activity at BacMam virus expressing human TRPV4 transduced in BHK/AC9 or HEK MSR2 cells assessed as inhibition of GSK634775-induced Ca2+ flux preincubated for 10 mins followed by agonist addition by Fluo-4 AM dye based FLIPR assay; type: cell-based
T1 sequence (Q9HBA0 whole entry): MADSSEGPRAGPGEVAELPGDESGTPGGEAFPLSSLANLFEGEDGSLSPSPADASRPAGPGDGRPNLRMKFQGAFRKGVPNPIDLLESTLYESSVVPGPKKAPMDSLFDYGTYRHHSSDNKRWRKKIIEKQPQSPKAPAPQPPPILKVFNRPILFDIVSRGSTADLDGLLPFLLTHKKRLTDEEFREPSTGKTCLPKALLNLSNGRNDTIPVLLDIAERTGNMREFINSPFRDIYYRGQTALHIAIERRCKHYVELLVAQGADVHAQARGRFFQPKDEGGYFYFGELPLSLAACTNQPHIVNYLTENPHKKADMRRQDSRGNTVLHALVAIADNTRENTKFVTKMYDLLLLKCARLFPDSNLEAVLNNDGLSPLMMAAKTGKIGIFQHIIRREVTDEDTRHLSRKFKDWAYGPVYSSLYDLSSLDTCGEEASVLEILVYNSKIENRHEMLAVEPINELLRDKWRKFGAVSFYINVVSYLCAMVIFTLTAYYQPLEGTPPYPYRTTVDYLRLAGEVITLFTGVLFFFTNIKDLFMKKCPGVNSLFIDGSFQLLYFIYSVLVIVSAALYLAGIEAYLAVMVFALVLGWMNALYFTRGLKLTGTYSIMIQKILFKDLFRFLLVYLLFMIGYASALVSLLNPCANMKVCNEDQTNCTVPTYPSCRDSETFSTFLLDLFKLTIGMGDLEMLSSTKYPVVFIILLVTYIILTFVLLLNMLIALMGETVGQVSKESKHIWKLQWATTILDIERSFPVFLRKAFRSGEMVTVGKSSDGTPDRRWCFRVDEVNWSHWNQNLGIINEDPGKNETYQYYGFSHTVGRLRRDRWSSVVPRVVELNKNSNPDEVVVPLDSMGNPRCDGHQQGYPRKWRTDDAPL

[20] = Protein binding in rat plasma assessed as unbound fraction; type: ADME, cell-free
[21] = Ratio of unbound clearance in Sprague-Dawley rat at 1 mg/kg, iv administered as 30 mins infusion to unbound clearance in dog; type: ADME, organism-based; conditions: in vivo, 0.5 h
[22] = Volume of distribution at steady state in Sprague-Dawley rat at 1 mg/kg, iv administered as 30 mins infusion or 1 to 2 mg/kg, po by HPLC-MS/MS analysis; type: ADME, organism-based; conditions: in vivo, read-out: Vdss
[23] = Oral bioavailability in Sprague-Dawley rat at 100 mg/kg by HPLC-MS/MS analysis; type: ADME, organism-based; conditions: in vivo
[24] = Clearance in Sprague-Dawley rat at 1 mg/kg, iv administered as 30 mins infusion by HPLC-MS/MS analysis; type: ADME, organism-based; conditions: in vivo
[25] = molecular target: T1, Transient receptor potential cation channel subfamily V member 4; assay: Antagonist activity at human TRPV4
[26] = Dose normalized AUC in Sprague-Dawley rat at 100 mg/kg, po using crystalline solid form of sample by HPLC-MS/MS analysis; type: ADME, organism-based; conditions: in vivo
[27] = Drug metabolism in rat hepatocytes assessed as GSH-mediated sulfonamide cleavage by measuring 2-amino-5-[[2-(carboxymethylamino)-1-[[2-cyano-4-(trifluoromethyl)phenyl]sulfanylmethyl]-2-oxo-ethyl]amino]-5-oxo-pentanoic acid formation by LC-MS/MS analysis; type: ADME, cell-based, Hepatocyte
[28] = Drug metabolism in rat hepatocytes assessed as oxidation of arene oxide metabolite by measuring 2-[(3R,4S)-4-(4-cyano-3-fluoro-phenoxy)-3-hydroxy-3-(hydroxymethyl)pyrrolidin-1-yl]sulfonyl-3,4-dihydroxy-5-(trifluoromethyl)benzonitrile formation by LC-MS/MS analysis; type: ADME, cell-based, Hepatocyte
[29] = Ratio of Cmax to Cmin in human; type: ADME
[30] = Oral bioavailability in Sprague-Dawley rat at 100 mg/kg using amorphous spray dried dispersion sample by HPLC-MS/MS analysis; type: ADME, organism-based; conditions: in vivo
[31] = Oral bioavailability in Sprague-Dawley rat at 100 mg/kg using crystalline solid form of sample by HPLC-MS/MS analysis; type: ADME, organism-based; conditions: in vivo
[32] = Dose normalized AUC in Sprague-Dawley rat at 1 mg/kg, po by HPLC-MS/MS analysis; type: ADME, organism-based; conditions: in vivo
[33] = Drug metabolism in rat hepatocytes assessed as rearomatization/conjugation by measuring metabolite formation by LC-MS/MS analysis; type: ADME, cell-based, Hepatocyte
[34] = test system: Rattus norvegicus; assay: Ratio of dose normalized AUC in Sprague-Dawley rat at 100 mg/kg, po using amorphous spray dried dispersion sample to dose normalized AUC in Sprague-Dawley rat at 100 mg/kg, po using crystalline solid form of sample; type: ADME, organism-based; conditions: in vivo
[35] = Dose normalized AUC in Sprague-Dawley rat at 100 mg/kg, po using amorphous spray dried dispersion sample by HPLC-MS/MS analysis; type: ADME, organism-based; conditions: in vivo
[36] = Unbound AUC in human; type: ADME
[37] = Oral bioavailability in Sprague-Dawley rat at 1 mg/kg by HPLC-MS/MS analysis; type: ADME, organism-based; conditions: in vivo

| SMILES | bioavailability [6] | MRT [10] | solubility at 4 h [11] | chromatographic logD [13] | Vduss [16] | CL free [18] | IC50 [19] | fraction unbound [20] | Vd [22] | clearance [24] | also measured |
| --- | --- | --- | --- | --- | --- | --- | --- | --- | --- | --- | --- |
| N#Cc1ccc(O[C@H]2CN(S(=O)(=O)c3ccc(Cl)cn3)C[C@@]2(O)CN)cc1F | 26% | 2.5 h | > 1000 µg/mL | 2.5 | 47 L/kg | 320 mL/min/kg | 12 nM | 0.14 | 6.7 L/kg | 45 mL/min/kg | Vd [1]: 5.9 L/kg; AUC/dose [2]: 0.092 kg·h/L; IC50 [3]: 12 µM; Papp [4]: 0.08 ×10⁻⁶ cm/s; bioavailability [5]: 84%; CL free [7]: 18 mL/min/kg; Vduss [8]: 18 L/kg; fraction unbound [9]: 0.32; AUC/dose [12]: 0.31 kg·h/L; IC50 [14]: 20 µM; clearance [15]: 5.9 mL/min/kg; MRT [17]: 17 h; Ratio [21]: 18; bioavailability [23]: 87% |
| N#Cc1ccc(O[C@H]2CN(S(=O)(=O)c3ccc(Cl)cc3Cl)CC2(O)CO)cc1F (single isomer, unassigned) | 100% | 4.8 h | 88 µg/mL (≈ 191 µM) | 4.9 | 330 L/kg | 1350 mL/min/kg | 33 nM | 0.04 | 13 L/kg | 54 mL/min/kg |  |
| N#Cc1ccc(S(=O)(=O)[C@H]2CN(S(=O)(=O)c3ccc(Cl)cc3Cl)C[C@@]2(O)CO)cc1 | 100% |  | 270 µg/mL (≈ 549 µM) | 4.5 | 85 L/kg | 925 mL/min/kg | 8 nM | 0.027 |  |  |  |
| N#Cc1ccc(O[C@H]2CN(S(=O)(=O)c3ccc(Cl)cn3)C[C@]2(O)CO)cc1F |  | 3.3 h | 130 µg/mL (≈ 304 µM) | 3.5 |  | 150 mL/min/kg | 190 nM |  |  |  |  |
| CC(C)Nc1nc2c(C(=O)N(C)C)c(Cl)c(Cl)cc2n1C1CCN(c2ccc(C(C)(C)C#N)cc2)CC1 |  |  |  |  |  |  |  |  |  |  | IC50 [25]: 32 nM |
| N#Cc1ccc(O[C@H]2CN(S(=O)(=O)c3ccc(C(F)(F)F)cc3C#N)C[C@@]2(O)CO)cc1F |  |  | 25 µg/mL (≈ 51.5 µM) |  | 73 L/kg |  |  |  | 3.6 L/kg |  | AUC/dose [26]: 0.0021 kg·h/L; Drug metabolism [27]: Metabolite_Detected; Drug metabolism [28]: Metabolite_Detected; Ratio [29]: 30; bioavailability [30]: 18%; F [31]: 1%; AUC/dose [32]: 0.148 kg·h/L; Drug metabolism [33]: Metabolite_Detected; Ratio AUC [34]: 18; AUC/dose [35]: 0.038 kg·h/L; Ratio [21]: 22 |
| N#Cc1ccc(O[C@H]2CN(S(=O)(=O)c3ccccc3C#N)C[C@@]2(O)CO)cc1F | 32% | 0.4 h | 20 µg/mL (≈ 47.9 µM) | 3.4 | 4.6 L/kg | 200 mL/min/kg | 3.8 nM | 0.197 | 0.9 L/kg | 39 mL/min/kg |  |
| N#Cc1ccc(O[C@H]2CN(S(=O)(=O)c3ccc(Cl)cc3Cl)C[C@@]2(O)CN)cc1F (racemic) | 24% | 3.2 h | 78 µg/mL (≈ 169 µM) | 4 | 210 L/kg | 1100 mL/min/kg | 3.5 nM | 0.036 | 7.7 L/kg | 40 mL/min/kg | IC50 [3]: 1.6 µM; fAUC [36]: 0.17 µg·h/mL |
| N#Cc1ccc(O[C@H]2CN(S(=O)(=O)c3ccc(Cl)cc3Cl)C[C@@]2(O)CO)cc1F |  |  | 19 µg/mL (≈ 41.2 µM) |  | 54 L/kg |  |  |  | 3.2 L/kg |  | Ratio [29]: 15; fAUC [36]: 0.24 µg·h/mL |
| N#Cc1ccc(O[C@H]2CN(S(=O)(=O)c3ccc(Cl)cc3)C[C@@]2(O)CO)cc1F | 83% | 1.9 h | 44 µg/mL (≈ 103 µM) | 4.1 | 170 L/kg | 1540 mL/min/kg | 53 nM | 0.035 | 6 L/kg | 54 mL/min/kg |  |
| N#Cc1ccc(O[C@H]2CN(S(=O)(=O)c3ccc(Cl)cn3)C[C@@]2(O)CO)cc1F | 100% | 1.2 h | 26 µg/mL (≈ 60.8 µM) | 3.4 | 12 L/kg | 170 mL/min/kg | 34 nM | 0.18 | 2.2 L/kg | 30 mL/min/kg | Vd [1]: 1.9 L/kg; AUC/dose [26]: 0.043 kg·h/L; Papp [4]: 0.22 ×10⁻⁶ cm/s; bioavailability [5]: 100%; bioavailability [30]: 79%; bioavailability ([31]; Sprague-Dawley): 7%; CL free [7]: 12 mL/min/kg; Vduss [8]: 5.5 L/kg; fraction unbound [9]: 0.34; AUC/dose [32]: 0.63 kg·h/L; clearance [15]: 4.1 mL/min/kg; MRT [17]: 7.8 h; bioavailability [37]: 100%; AUC/dose [35]: 0.5 kg·h/L; Ratio [21]: 14 |
| N#Cc1ccc(O[C@H]2CN(S(=O)(=O)c3ccc(C(F)(F)F)cc3)C[C@@]2(O)CO)cc1F | 100% | 2 h | 5 µg/mL (≈ 10.9 µM) | 4.5 | 180 L/kg | 1500 mL/min/kg | 100 nM | 0.033 | 5.9 L/kg | 50 mL/min/kg |  |
| N#Cc1ccc(O[C@H]2CN(S(=O)(=O)c3ccc(C(F)(F)F)nc3)C[C@@]2(O)CO)cc1F | 100% | 2.3 h | 98 µg/mL (≈ 212 µM) | 4.2 | 28 L/kg | 210 mL/min/kg | 175 nM | 0.147 | 4.1 L/kg | 31 mL/min/kg | Ratio [21]: 13 |
| N#Cc1ccc(S(=O)(=O)[C@H]2CN(S(=O)(=O)c3ccc(Cl)cn3)C[C@@]2(O)CO)cc1 |  |  | > 1000 µg/mL | 3.1 |  |  | 3800 nM |  |  |  |  |
